According to publication PMC3529200 (Bioorganic & medicinal chemistry letters, 2010):

Experiments:
[1] = pharmacokinetics, species not specified; conditions: in vivo
[2] = test system: CYP2C; assay: CYP inhibition
[3] = cynomolgus monkey pharmacokinetics; conditions: up to 180 mg/kg in cynomolgus monkeys
[4] = test system: impaired glucose tolerance; assay: diet induced-obesity; assay type: in vivo, C57Bl/6 mice; conditions: 100 mg/kg oral twice a day, after 4 weeks, ip glucose 2 g/kg 4 hours after dose
[5] = test system: CYP2J; assay: CYP inhibition
[6] = target: T1, CYP1A2 (Homo sapiens, UniProt P05177); assay: CYP inhibition
T1 sequence (P05177 1-516): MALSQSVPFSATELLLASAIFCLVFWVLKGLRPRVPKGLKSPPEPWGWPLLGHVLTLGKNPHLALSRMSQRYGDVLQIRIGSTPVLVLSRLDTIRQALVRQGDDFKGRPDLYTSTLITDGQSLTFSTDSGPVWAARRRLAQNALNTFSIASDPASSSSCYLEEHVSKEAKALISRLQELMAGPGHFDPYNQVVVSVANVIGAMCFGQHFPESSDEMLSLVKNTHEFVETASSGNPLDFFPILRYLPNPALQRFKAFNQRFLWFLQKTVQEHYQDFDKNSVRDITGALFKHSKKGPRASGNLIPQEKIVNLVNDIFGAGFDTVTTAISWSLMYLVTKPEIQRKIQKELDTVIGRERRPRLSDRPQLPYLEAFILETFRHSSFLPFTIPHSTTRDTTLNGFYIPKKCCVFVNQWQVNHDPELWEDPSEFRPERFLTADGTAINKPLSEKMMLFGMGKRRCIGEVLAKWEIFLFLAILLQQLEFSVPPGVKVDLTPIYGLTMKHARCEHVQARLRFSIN

[7] = dog pharmacokinetics; conditions: up to 500 mg/kg in dogs
[8] = target: CYP2C19 (Homo sapiens, UniProt P33261); assay: CYP inhibition
[9] = target: CYP2C9 (Homo sapiens, UniProt P11712); assay: CYP inhibition
[10] = test system: ca.150 other enzyme and receptor targets; assay: selectivity panel of ca.150 other enzyme and receptor targets; conditions: tested at 10 μM
[11] = target: T2, CYP2B6 (Homo sapiens, UniProt P20813); assay: CYP inhibition
T2 sequence (P20813 1-491): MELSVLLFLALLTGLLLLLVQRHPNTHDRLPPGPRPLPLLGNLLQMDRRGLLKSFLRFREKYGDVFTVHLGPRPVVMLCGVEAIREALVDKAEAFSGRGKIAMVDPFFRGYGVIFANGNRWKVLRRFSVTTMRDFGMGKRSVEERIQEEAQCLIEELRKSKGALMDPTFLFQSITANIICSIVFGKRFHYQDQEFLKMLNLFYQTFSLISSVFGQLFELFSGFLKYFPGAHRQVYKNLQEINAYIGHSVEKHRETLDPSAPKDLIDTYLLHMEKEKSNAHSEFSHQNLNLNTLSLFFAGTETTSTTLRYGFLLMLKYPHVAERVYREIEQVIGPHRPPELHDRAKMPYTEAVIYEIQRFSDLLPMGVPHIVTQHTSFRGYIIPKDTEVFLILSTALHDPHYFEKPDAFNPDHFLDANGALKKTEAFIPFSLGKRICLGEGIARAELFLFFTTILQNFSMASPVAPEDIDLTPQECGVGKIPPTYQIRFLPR

[12] = test system: AngII-induced hypertension; assay: AngII-infused rat model of hypertension; assay type: in vivo, Sprague-Dawley rats; conditions: 50 mg/kg orally twice daily
[13] = test system: Caco-2 monolayer; assay: Caco-2 monolayer permeability
[14] = rat pharmacokinetics; conditions: up to 2000 mg/kg in rats
[15] = plasma protein binding
[16] = target: CYP3A4 (Homo sapiens, UniProt P08684); assay: CYP inhibition
[17] = early animal and human dose range finding toxicology studies; cited from earlier work

Sequence of CYP2C19 (P33261 whole entry): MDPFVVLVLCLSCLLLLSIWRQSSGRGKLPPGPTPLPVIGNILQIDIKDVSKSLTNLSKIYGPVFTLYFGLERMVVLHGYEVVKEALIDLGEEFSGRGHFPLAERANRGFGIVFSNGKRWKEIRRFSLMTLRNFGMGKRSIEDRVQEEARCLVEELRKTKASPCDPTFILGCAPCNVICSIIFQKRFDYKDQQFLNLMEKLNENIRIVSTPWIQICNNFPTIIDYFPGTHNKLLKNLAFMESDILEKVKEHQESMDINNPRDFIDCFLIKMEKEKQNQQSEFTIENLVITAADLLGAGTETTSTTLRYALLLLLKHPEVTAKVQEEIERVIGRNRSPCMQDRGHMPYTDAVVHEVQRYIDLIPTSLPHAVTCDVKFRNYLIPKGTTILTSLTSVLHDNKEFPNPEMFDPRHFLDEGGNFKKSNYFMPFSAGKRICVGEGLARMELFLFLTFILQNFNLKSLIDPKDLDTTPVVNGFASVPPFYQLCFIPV
Sequence of CYP3A4 (P08684 whole entry): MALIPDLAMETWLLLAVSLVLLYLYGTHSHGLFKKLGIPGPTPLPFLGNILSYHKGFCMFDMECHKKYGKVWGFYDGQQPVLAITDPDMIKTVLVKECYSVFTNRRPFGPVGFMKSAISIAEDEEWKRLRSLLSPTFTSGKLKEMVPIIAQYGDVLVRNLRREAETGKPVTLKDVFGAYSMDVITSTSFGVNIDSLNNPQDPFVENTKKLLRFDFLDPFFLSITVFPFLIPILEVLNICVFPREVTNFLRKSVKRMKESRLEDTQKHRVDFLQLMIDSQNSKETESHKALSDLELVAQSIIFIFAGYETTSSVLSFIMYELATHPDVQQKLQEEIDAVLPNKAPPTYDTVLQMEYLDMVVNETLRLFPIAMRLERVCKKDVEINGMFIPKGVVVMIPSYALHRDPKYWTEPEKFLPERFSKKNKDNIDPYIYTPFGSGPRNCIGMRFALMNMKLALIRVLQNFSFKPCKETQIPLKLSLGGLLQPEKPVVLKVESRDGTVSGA
Sequence of CYP2C9 (P11712 whole entry): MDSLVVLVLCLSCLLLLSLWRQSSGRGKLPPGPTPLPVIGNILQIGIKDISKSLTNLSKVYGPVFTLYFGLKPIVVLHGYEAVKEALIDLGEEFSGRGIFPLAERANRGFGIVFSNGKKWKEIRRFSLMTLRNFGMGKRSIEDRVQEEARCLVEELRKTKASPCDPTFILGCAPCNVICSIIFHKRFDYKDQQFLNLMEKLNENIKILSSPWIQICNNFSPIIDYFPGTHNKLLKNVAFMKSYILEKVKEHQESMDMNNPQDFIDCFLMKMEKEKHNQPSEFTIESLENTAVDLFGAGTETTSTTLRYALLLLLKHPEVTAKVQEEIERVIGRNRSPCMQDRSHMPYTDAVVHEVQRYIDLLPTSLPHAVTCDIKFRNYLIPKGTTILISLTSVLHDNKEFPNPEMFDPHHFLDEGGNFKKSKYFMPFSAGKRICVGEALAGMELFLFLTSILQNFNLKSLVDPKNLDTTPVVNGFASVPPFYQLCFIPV

CC(=O)N1CCC(NC(=O)NC23CC4CC(CC(C4)C2)C3)CC1 [Compound 14a, 1-(1-Acetyl-piperidin-4-yl)-3-adamantan-1-yl-urea]
clearance [1]: relatively moderate to high
half life [1]: short
inhibition of CYP2C [2]: No significant inhibition
oral exposure (AUC) versus dose [3]: increased in approximate proportion to dose
glucose AUC versus vehicle-treated animals [4]: lower
maximal glucose excursion versus vehicle-treated animals [4]: lower
inhibition of CYP2J [5]: No significant inhibition
inhibition of CYP1A2 [6]: No significant inhibition
oral exposure (AUC) versus dose [7]: increased in approximate proportion to dose
inhibition of CYP2C19 [8]: No significant inhibition
inhibition of CYP2C9 [9]: No significant inhibition
inhibitory activity against panel of ca.150 other enzyme and receptor targets [10]: no inhibitory activity
inhibition of CYP2B6 [11]: No significant inhibition
effect on diastolic pressure [12]: more modest effect
permeability across a Caco-2 monolayer [13]: highly permeable
oral exposure (AUC) versus dose [14]: increased in approximate proportion to dose
fraction unbound [15]: 0.39 to 0.42
inhibition of CYP3A4 [16]: No significant inhibition
tolerability [17]: well tolerated
